A word on the IC50: it is the concentration that inhibits the measured activity by half. A lower IC50 goes with inhibition by little substance.

Where two headings read alike, the source gives them in different places.

The values below come from paper PMC8434776 (Antiviral research, 2021).

Experiment [1] has as its target T1, human cytochrome P450 51 (hCYP51) (Homo sapiens, UniProt Q16850).
T1 sequence (Q16850 1-509): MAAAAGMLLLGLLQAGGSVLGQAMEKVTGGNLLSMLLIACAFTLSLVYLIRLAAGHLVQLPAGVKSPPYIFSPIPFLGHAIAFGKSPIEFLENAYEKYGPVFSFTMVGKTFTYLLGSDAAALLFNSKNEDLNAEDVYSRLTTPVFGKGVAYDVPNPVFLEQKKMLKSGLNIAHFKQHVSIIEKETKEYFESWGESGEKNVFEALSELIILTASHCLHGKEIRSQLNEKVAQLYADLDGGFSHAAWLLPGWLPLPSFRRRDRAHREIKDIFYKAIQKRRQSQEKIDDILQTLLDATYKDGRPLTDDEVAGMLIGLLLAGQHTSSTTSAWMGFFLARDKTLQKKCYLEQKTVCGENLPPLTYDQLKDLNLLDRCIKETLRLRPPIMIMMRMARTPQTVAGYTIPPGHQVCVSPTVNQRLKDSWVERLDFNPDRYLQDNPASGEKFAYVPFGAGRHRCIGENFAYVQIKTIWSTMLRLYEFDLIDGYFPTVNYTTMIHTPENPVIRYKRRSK
The experiment in a line: enzymatic assay, [[…]-3H]lanosterol conversion by purified hCYP51/CPR, radio-HPLC. The format is biochemical.

Experiment [2] addresses T1, human cytochrome P450 51 (hCYP51). Described as above. The format is biochemical. This is another data set of the same source.

Turning to `CC[C@@H]([C@H](C)O)n1ncn(-c2ccc(N3CCN(c4ccc(OC[C@@H]5CO[C@@](Cn6cncn6)(c6ccc(F)cc6F)C5)cc4)CC3)cc2)c1=O` [PCZ, posaconazole], in experiment [1], the IC50 was 8.3 µM.
As for `C[C@@H](c1nc(-c2ccc(C#N)cc2)cs1)[C@](O)(Cn1cncn1)c1cc(F)ccc1F` [ICZ, isavuconazole], in experiment [2], the IC50 was found to be 50.5 µM.
